Reference: PubChem BioAssay AID179 (DTP/NCI, 2004)
Where “and” joins values, the source holds several entries; their conditions need not be identical. Identical values can stand only once. Calls of active or inactive are those of the source.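 The calls were made as follows: active = compounds giving half or more protection of infected cells from virus-caused growth loss, again on retest; inactive = the rest.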

Test system: CEM cells HIV-1 protection, formazan growth assay
Assay: NCI AIDS Antiviral Assay
Settings: for IC50: measured here: growth of uninfected CEM cells
Outline: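 CEM (human) cells, HIV-1 infected vs uninfected, 5-point dosing, formazan growth read-out. Retest threshold 50% protection.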

SMILES: CC(C)=CCc1c(O)ccc2c1OC1c3ccc(O)c(CC=C(C)C)c3OCC21 (centres undefined)
- outcome: inactive

SMILES: CC(C)c1c(P(=O)(c2ccccc2)c2ccccc2)n(C)c2ccccc12
- EC50: > 100 µM
- IC50: 41.7 µM

SMILES: NNC(=S)N1CCN(C(=S)NN)CC1
- EC50: > 200 µM
- IC50: 15.1 µM

SMILES: COC(=O)C1(CC(=O)OC(C)(C)C)NCCc2c1[nH]c1ccccc21 (centres undefined)
- EC50: > 115 µM
- IC50: 95.5 µM

SMILES: Clc1ccc(CSc2cnnc3ccccc23)cc1
- EC50: > 61.7 µM
- IC50: > 61.7 µM

SMILES: CC(=O)C(=Cc1ccc(C#N)cc1)C(C)=O
- EC50: > 170 µM
- IC50: 26.9 µM

SMILES: CCOC1c2cc(C(C)C)c(O)c(O)c2[C@@]23CCCC(C)(C)C2C1OC3=O (some centres undefined)
- EC50: > 200 µM
- IC50: 9.33 µM

SMILES: C=CC(CCCCCCCC(=O)O)S(=O)(=O)O (centres undefined)
- EC50: > 200 µM
- IC50: > 200 µM

SMILES: CN1C[C@H]2[C@@H](C1=O)[C@H](c1ccc([N+](=O)[O-])cc1)ON2C
- EC50: > 200 µM
- IC50: > 200 µM

SMILES: COC1=CC(=O)C(O)=C(C[C@@]2(C)C3CCCC(C)(C)C3=CC[C@@H]2C)C1=O (some centres undefined)
- EC50: > 363 µM
- IC50: 19.5 µM

SMILES: CN1C(=O)CCSC1=S
- outcome: inactive

SMILES: C#CCN(N=O)C(=O)ON1C(=O)CCC1=O
- EC50: > 1120 µM
- IC50: 537 µM

SMILES: COC1/C=C/OC2(C)Oc3c(C)c(O)c4c(O)c(c(/C=N/N5CCN(Cc6ccccc6)CC5)c(O)c4c3C2=O)NC(=O)C(C)=C/C=C/C(C)C(O)C(C)C(O)C(C)C(OC(C)=O)C1C (centres undefined)
- EC50: > 200 µM
- IC50: 10.2 µM

SMILES: O=[P+](O)c1cccs1
- outcome: inactive

SMILES: CCCc1cc(=O)oc2c3c(cc(OCC)c12)O[C@H](C)[C@@H](C)C3=O
- EC50: > 200 µM
- IC50: 8.32 µM

SMILES: Cc1ccc(C(=O)/C=C/c2ccc(N(C)C)cc2)cc1
- EC50: > 7.59 µM
- IC50: > 7.59 µM

SMILES: C1CCSCCCCCSCCCCCSCCCCCSCC1
- EC50: > 200 µM
- IC50: 44.7 µM

SMILES: O=c1[nH]c(=O)n(C2OC(CO)C(O)C2O)c2ccsc12 (centres undefined)
- EC50: > 200 µM
- IC50: > 200 µM

SMILES: COc1cc(C2C(=O)C(Cl)N2Nc2nc(C)cc(=O)[nH]2)cc(OC)c1OC (centres undefined)
- EC50: > 66.1 µM
- IC50: 9.77 µM

SMILES: Cc1ccc(NC(=O)/C(Cc2cc(=O)oc3cc(O)ccc23)=N\NC(=O)C[N+](C)(C)C)cc1C
- EC50: > 186 µM
- IC50: > 186 µM

SMILES: CC(=O)Oc1c(C)c2c(c3ncccc13)OC(C)C2 (centres undefined)
- EC50: > 200 µM
- IC50: 3.16 µM

SMILES: CCCCCCNC(=S)N/N=C(\C)c1ccccn1
- EC50: > 0.2 µM
- IC50: 0.0324 µM

SMILES: COc1ccc(OC(C)=O)c2c1CCC=CC2=O
- outcome: inactive

SMILES: O=C(CC1Sc2ccccc2NC1=O)Nc1ccc(Cl)cc1 (centres undefined)
- EC50: > 107 µM
- IC50: > 107 µM

SMILES: O=c1c2cccnc2ncn1CCN1CCOCC1
- outcome: inactive

SMILES: CC(=O)Nc1ccc2c(c1)C(c1ccccc1)=NCC(=O)N2
- EC50: > 200 µM
- IC50: 55 µM

SMILES: CC1=NN(C(=O)CC(=O)Nc2ccc(Cl)cc2)C(=O)C1N=Nc1ccc(C(=O)O)cc1 (centres undefined)
- EC50: > 200 µM
- IC50: 87.1 µM

SMILES: COc1ccc(CCc2cc(OC)c(O)c(OC)c2)cc1
- EC50: > 200 µM
- IC50: 10.5 µM

SMILES: O=C(/C=C/c1ccc(O)c(O)c1)OC1CC(O)(C(=O)O)CC(O)C1O (centres undefined)
- EC50: > 200 µM
- IC50: 91.2 µM

SMILES: CC/C(N)=N\NC(=O)OC(C)(C)C
- EC50: > 200 µM
- IC50: > 200 µM

SMILES: Cn1cc(NC(=O)c2cc(NC(=O)c3cc(NC(=O)c4ccc(C(=O)Nc5cn(C)c(C(=O)Nc6cn(C)c(C(=O)Nc7cn(C)c(C(=O)NCCC(=N)N)n7)n6)n5)cc4)cn3C)cn2C)cc1C(=O)NCCC(=N)N
- EC50: > 33.1 µM
- IC50: 6.61 µM

SMILES: O=[N+]([O-])c1ccc(/C=C/c2ccc([N+](=O)[O-])cc2S(=O)(=O)O)c(S(=O)(=O)O)c1
- outcome: inactive

SMILES: O=c1[nH]c2ccc(O)cc2o1
- EC50: > 200 µM
- IC50: > 200 µM

SMILES: CCOc1ccccc1NC(=O)C(=O)c1c(O)c2ccc(O)cc2oc1=O
- EC50: > 490 µM
- IC50: 182 µM

SMILES: Cc1ccc(S(=O)(=O)c2ccc([N+](=O)[O-])o2)cc1
- EC50: 0.02 µM
- IC50: 0.0631 µM

SMILES: Nc1cc(Cl)ccc1N1C(=O)CCC1=O
- EC50: 166 µM
- IC50: > 200 µM

SMILES: O=C(CCN1CCN(c2cccc(Cl)c2)CC1)N1CCc2c([nH]c3ccccc23)C1c1cccnc1 (centres undefined)
- EC50: > 10.5 µM
- IC50: > 10.5 µM

SMILES: Cc1nc2cccc(F)c2c(=O)n1C1CCCCNC1=O (centres undefined)
- EC50: > 200 µM
- IC50: > 200 µM

SMILES: NC(=S)N/N=C1\CCCCC1C(O)(C(F)(F)Cl)C(F)(F)Cl (centres undefined)
- EC50: > 200 µM
- IC50: > 200 µM

SMILES: Cn1c(COC(=O)Nc2ccccc2)c(COC(=O)Nc2ccccc2)c2ccc3cc(Cl)c(Cl)cc3c21
- EC50: > 200 µM
- IC50: 0.468 µM

SMILES: COc1cc2c(cc1OC(=O)CC(C)O)C1C(OC2=O)C(OC(C)=O)C=C2CCN(C)[C@H]21 (some centres undefined)
- EC50: > 56.2 µM
- IC50: > 56.2 µM

SMILES: O=C1NC(N/N=C\C(O)C(O)C(O)CO)=N/C1=C/c1ccccc1 (centres undefined)
- EC50: > 200 µM and 38 µM
- IC50: 89.1 µM and 105 µM

SMILES: CCOC(=O)c1cc2sc(NC(=O)c3ccco3)nc2o1
- EC50: 182 µM
- IC50: > 200 µM

SMILES: CS(=O)(=O)c1ccc(C(=O)O[C@@H]2C(=O)N3CC[C@H]4OC(O)[C@@H]2[C@H]43)cc1 (some centres undefined)
- EC50: > 200 µM
- IC50: > 200 µM

SMILES: CC#N.CC#N.COC(=O)[C@@H]1CN(C(C)=O)C(=O)[N-]1.COC(=O)[C@@H]1CN(C(C)=O)C(=O)[N-]1.COC(=O)[C@@H]1CN(C(C)=O)C(=O)[N-]1.COC(=O)[C@@H]1CN(C(C)=O)C(=O)[N-]1.[Rh+2].[Rh+2]
- EC50: > 200 µM
- IC50: > 200 µM

SMILES: CC(CO)NNC(C)CO (centres undefined)
- EC50: > 200 µM
- IC50: > 200 µM

SMILES: O=C([O-])C1([n+]2c(-c3ccccc3)cc(-c3ccccc3)cc2-c2ccccc2)CC1
- EC50: > 200 µM
- IC50: 81.3 µM

SMILES: COc1cccc(C2c3cc4c(cc3OC(C)(O)C2C)OCO4)c1O (centres undefined)
- EC50: > 200 µM
- IC50: 0.646 µM

SMILES: CCOC(=O)NC(=O)c1cn(C(CC)COC(=O)NCCCCCCNC(=O)OCC(CC)n2cc(C(=O)NC(=O)OCC)c(=O)[nH]c2=O)c(=O)[nH]c1=O (centres undefined)
- outcome: inactive

SMILES: N#Cc1ccc(-n2cccc2)cc1
- EC50: > 200 µM
- IC50: > 200 µM

SMILES: CNc1nnnn1C1OC(CO)C(O)C1O (centres undefined)
- EC50: > 1070 µM
- IC50: > 1070 µM

SMILES: O=[N+]([O-])c1ccc2nc3ccscc-3c2c1
- EC50: > 15.5 µM
- IC50: 2.88 µM

SMILES: N#C/C(=C\c1ccc(C#N)cc1)C(=O)c1ccccc1
- EC50: > 97.7 µM
- IC50: 41.7 µM

SMILES: O=c1sc2c(s1)SSSSS2
- EC50: > 50.1 µM
- IC50: 15.8 µM

SMILES: O=c1cn[nH]c2nc3ccccc3n12
- EC50: > 200 µM
- IC50: > 200 µM

SMILES: CCOC(=O)C(=O)C=P(c1ccccc1)(c1ccccc1)c1ccccc1
- EC50: 18.6 µM
- IC50: 35.5 µM

SMILES: CCOC(OCC)C(CC)[Se]c1ccccc1[N+](=O)[O-] (centres undefined)
- EC50: > 28.8 µM
- IC50: 1.7 µM

SMILES: O=C(/N=C/c1c(O)c2ccccc2oc1=O)Oc1ccccc1
- EC50: > 100 µM
- IC50: 33.1 µM

SMILES: CN(CCO)CC(O)Cn1cnc2c1c(=O)n(C)c(=O)n2C (centres undefined) (tested in a mixture with another compound)
- EC50: > 200 µM
- IC50: > 200 µM

SMILES: O=C(C[n+]1ccccc1)N/N=C(/CCC(=O)N(Cc1ccccc1)Cc1ccccc1)CC(=O)c1ccccc1
- EC50: > 437 µM
- IC50: > 437 µM

SMILES: C=C1C(OO)O[C@@H]2O[C@@]3(C)CC[C@H]4[C@H](C)CC[C@@H]1[C@@]24O3 (some centres undefined)
- EC50: > 200 µM
- IC50: 27.5 µM

SMILES: NCCCCN(CCCN)/[N+]([O-])=N\O
- EC50: > 7590 µM
- IC50: 91.2 µM

SMILES: COC(=O)c1ccc(N/C=C(/C#N)c2ccsc2)cc1
- EC50: > 47.9 µM
- IC50: > 47.9 µM
